Residue numbers refer to the chain shown, from its start.
Legend:
[1] = biological target: T1, AR(H875Y) (Homo sapiens, UniProt P10275, H875Y); test: Degradation of ectopic Myc-tagged AR mutant in DU145 cells (western blot); format: cell-based; conditions: 10 μM, 24 hours
T1 construct: expressed in transfected cells; host or cells: DU145
T1 sequence (P10275 1-920 H875Y): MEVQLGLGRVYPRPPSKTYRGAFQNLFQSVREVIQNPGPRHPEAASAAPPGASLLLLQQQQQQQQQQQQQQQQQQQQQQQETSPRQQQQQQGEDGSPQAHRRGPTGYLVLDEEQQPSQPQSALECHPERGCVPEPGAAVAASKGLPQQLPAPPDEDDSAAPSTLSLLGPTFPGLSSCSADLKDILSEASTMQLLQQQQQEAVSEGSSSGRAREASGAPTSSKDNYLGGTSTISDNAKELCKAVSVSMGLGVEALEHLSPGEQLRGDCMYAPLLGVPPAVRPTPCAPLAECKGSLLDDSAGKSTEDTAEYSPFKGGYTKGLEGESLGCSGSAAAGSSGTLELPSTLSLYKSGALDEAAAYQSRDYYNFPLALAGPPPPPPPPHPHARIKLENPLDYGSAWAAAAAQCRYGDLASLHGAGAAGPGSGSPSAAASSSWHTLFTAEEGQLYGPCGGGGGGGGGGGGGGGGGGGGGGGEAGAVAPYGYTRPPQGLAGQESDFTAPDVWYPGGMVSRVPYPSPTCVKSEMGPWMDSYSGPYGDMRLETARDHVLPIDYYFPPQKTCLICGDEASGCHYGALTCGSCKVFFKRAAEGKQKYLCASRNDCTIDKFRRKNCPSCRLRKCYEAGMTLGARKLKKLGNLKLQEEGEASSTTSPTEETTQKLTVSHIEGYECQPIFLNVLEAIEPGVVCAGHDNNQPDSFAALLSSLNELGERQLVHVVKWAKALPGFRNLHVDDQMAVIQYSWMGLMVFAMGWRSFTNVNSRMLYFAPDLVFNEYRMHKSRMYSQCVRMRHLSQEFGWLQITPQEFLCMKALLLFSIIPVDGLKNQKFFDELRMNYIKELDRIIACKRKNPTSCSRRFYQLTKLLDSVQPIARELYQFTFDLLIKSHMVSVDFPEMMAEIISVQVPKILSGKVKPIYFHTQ
Excerpt: (§1) pLenti4/TO/Flag-AR and pLenti4/TO/Flag-AR(∆LBD) plasmids are as described previously. To generate pLenti4/TO/Flag-AR-V7 plasmid, the DNA fragment of AR-V7 was amplified from pEGFP-C1-AR V7, a gift from Michael A Mancini (Addgene plasmid # 86856), and inserted into the pLenti4/TO plasmid carrying a N-terminal Flag tag between BamH1 and XhoI. The AR(L702H) and AR(H875Y) mutants were generated by site-directed mutagenesis of pCMV-Myc-AR, which is previously constructed and described in [22]. Primers used in the cloning and mutagenesis are: […]
(§2) Cell lysis, Western blotting, and AR ubiquitination were performed as described in [17]. […]
(§3) Fig. 1 ITRI-148 induces degradation of both AR and AR-V7 proteins in CRPC cells. […] AR-V7 expression was detected using an anti-Flag antibody. […] An N-terminal AR antibody was used to detect both full-length AR and LBD-truncated variants (AR-V(ΔLBD)) in CWR22Rv1 cells, while AR-V7 was detected using an AR-V7-specific antibody. DC₅₀ values were calculated from normalized band intensities, and Dₘₐₓ represents the maximal degradation achieved at 10 μM ITRI-148. (D) Immunofluorescence staining of AR after 24 or 48 hours of ITRI-148 treatment, detected using an N-terminal AR antibody. […] Quantified AR levels are as indicated. […]

[2] = biological target: T2, AR(L702H) (Homo sapiens, UniProt P10275, L702H); test: as above; format: cell-based; conditions: 10 μM, 24 hours
T2 construct: expressed in transfected cells; host or cells: DU145
T2 sequence (P10275 1-920 L702H): T1 sequence (P10275 1-920 H875Y) with L702H, Y875H
Excerpt: as §1, §2, §3

O=C1CCC(N2C(=O)c3cccc(NCC(=O)N4CCC(N5CCC(C#Cc6ccc(C7CCN(C8=Nn9c(nnc9C(F)(F)F)CC8)CC7)cc6)CC5)CC4)c3C2=O)C(=O)N1 (centres unmarked) [ITRI-148]
degradation of Myc-tagged AR mutant H875Y [1]: degraded
degradation of Myc-tagged AR mutant L702H [2]: degraded

— paper PMC12661400, “Oral bioavailable ITRI-148 degrades androgen receptor variants and overcomes antiandrogen resistance in advanced prostate cancer” (Neoplasia (New York, N.Y.), 2025)
